Reference: patent US20240208961A1, “EIF4E INHIBITORS AND USES THEREOF” (PIC Therapeutics, Inc., priority 2022, published 2024)
“And” between values parts separate entries of the source, which are not always exact repeats. Equal entries are not always repeated. Where two headings read alike, the source gives them in different places.

Key:
ZR-75-1 = experiment: Cell viability assay, adherent cell line, 5 day Alamar Blue (Example 8): ZR-75-1; format: cell-based; conditions: Homo sapiens, 120 h, ZR-75-1, Breast Cancer Cell Viability
[1] = Pharmacokinetic studies of certain compounds in female Balb/c mice (Example 5); format: in vivo; conditions: for concentration at 0.083 h / concentration at 0.25 h / concentration at 0.5 hr / concentration at 1 hr / concentration at 2 hr / concentration at 4 hr / concentration at 8 hr / concentration at 24 hr / concentration at 0.5 h / concentration at 1 h / concentration at 2 h / concentration at 4 h / concentration at 8 h / concentration at 24 h: female, Balb/c
Summary of the method: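 Female Balb/c mice (N=9) were fasted overnight and given compound PO as a suspension in 1% CMC/0.2% Tween 80 or IV in 5% DMSO/5% Solutol HS15/90% saline. Facial-vein plasma was taken from 0.083 to 24 h and assayed by LC-MS. Parameters are non-compartmental, and F was based on AUCINF or AUClast.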

[2] = mouse, plasma, I-27 PO 30 mg/kg

## CC(C)Cc1sc(Nc2ncc(-c3cccs3)cc2C(=O)O)nc1C1(C)CCCCC1 [Compound I-27]
ZR-75-1
  IC50: ≤ 1000 nM
[1]; I-27 IV 1 mg/kg, 0.083 hr, 1 mg/kg
  Plasma concentration Individual: 4810 ng/mL and 5030 ng/mL
[1]; I-27 IV 1 mg/kg, 0.25 hr, 1 mg/kg
  Plasma concentration Individual: 1300 ng/mL and 1270 ng/mL
[1]; I-27 IV 1 mg/kg, 0.5 hr, 1 mg/kg
  Plasma concentration Individual: 584 ng/mL and 448 ng/mL
[1]; I-27 IV 1 mg/kg, 1 hr, 1 mg/kg
  Plasma concentration Individual: 393 ng/mL and 335 ng/mL
[1]; I-27 IV 1 mg/kg, 2 hr, 1 mg/kg
  Plasma concentration Individual: 213 ng/mL and 163 ng/mL
[1]; I-27 IV 1 mg/kg, 4 hr, 1 mg/kg
  Plasma concentration Individual: 31.7 ng/mL and 29.9 ng/mL
[1]; I-27 IV 1 mg/kg, 8 hr, 1 mg/kg
  Plasma concentration Individual: 5.02 ng/mL and 8.89 ng/mL
[1]; I-27 IV 1 mg/kg, 24 hr, BQL = below quantifiable limit of 1.00 ng/mL, 1 mg/kg
  Plasma concentration Individual: BQL
[1]; I-27 PO 30 mg/kg vs IV 1 mg/kg
  F: 27.4%
[1]; I-27 PO 30 mg/kg, 0.083 hr, 30 mg/kg
  Plasma concentration Individual: 80.4 ng/mL and 62.5 ng/mL
[1]; I-27 PO 30 mg/kg, 0.25 hr, 30 mg/kg
  Plasma concentration Individual: 368 ng/mL and 587 ng/mL
[1]; I-27 PO 30 mg/kg, 0.5 hr, 30 mg/kg
  Plasma concentration Individual: 1590 ng/mL and 1270 ng/mL
[1]; I-27 PO 30 mg/kg, 1 hr, 30 mg/kg
  Plasma concentration Individual: 2120 ng/mL and 2090 ng/mL
[1]; I-27 PO 30 mg/kg, 2 hr, 30 mg/kg
  Plasma concentration Individual: 2860 ng/mL and 1950 ng/mL
[1]; I-27 PO 30 mg/kg, 4 hr, 30 mg/kg
  Plasma concentration Individual: 2160 ng/mL and 1760 ng/mL
[1]; I-27 PO 30 mg/kg, 8 hr, 30 mg/kg
  Plasma concentration Individual: 715 ng/mL and 493 ng/mL
[1]; I-27 PO 30 mg/kg, 24 hr, 30 mg/kg
  Plasma concentration Individual: 11.0 ng/mL and 10.1 ng/mL
[1]; mouse, plasma, iv, 1 mg/kg, I-27 IV 1 mg/kg, 0.083 hr, read-out: Plasma concentration Individual
  concentration at 0.083 h: 4410 ng/mL
[1]; mouse, plasma, iv, 1 mg/kg, I-27 IV 1 mg/kg, 0.083 hr, read-out: Plasma concentration Mean
  concentration at 0.083 h: 4750 ng/mL
[1]; mouse, plasma, iv, 1 mg/kg, I-27 IV 1 mg/kg, 0.25 hr, read-out: Plasma concentration Individual
  concentration at 0.25 h: 865 ng/mL
[1]; mouse, plasma, iv, 1 mg/kg, I-27 IV 1 mg/kg, 0.25 hr, read-out: Plasma concentration Mean
  concentration at 0.25 h: 1140 ng/mL
[1]; mouse, plasma, iv, 1 mg/kg, I-27 IV 1 mg/kg, 0.5 hr, read-out: Plasma concentration Individual
  concentration at 0.5 hr: 638 ng/mL
[1]; mouse, plasma, iv, 1 mg/kg, I-27 IV 1 mg/kg, 0.5 hr, read-out: Plasma concentration Mean
  concentration at 0.5 hr: 557 ng/mL
[1]; mouse, plasma, iv, 1 mg/kg, I-27 IV 1 mg/kg, 1 hr, read-out: Plasma concentration Individual
  concentration at 1 hr: 341 ng/mL
[1]; mouse, plasma, iv, 1 mg/kg, I-27 IV 1 mg/kg, 1 hr, read-out: Plasma concentration Mean
  concentration at 1 hr: 356 ng/mL
[1]; mouse, plasma, iv, 1 mg/kg, I-27 IV 1 mg/kg, 2 hr, read-out: Plasma concentration Individual
  concentration at 2 hr: 142 ng/mL
[1]; mouse, plasma, iv, 1 mg/kg, I-27 IV 1 mg/kg, 2 hr, read-out: Plasma concentration Mean
  concentration at 2 hr: 173 ng/mL
[1]; mouse, plasma, iv, 1 mg/kg, I-27 IV 1 mg/kg, 4 hr, read-out: Plasma concentration Individual
  concentration at 4 hr: 55.9 ng/mL
[1]; mouse, plasma, iv, 1 mg/kg, I-27 IV 1 mg/kg, 4 hr, read-out: Plasma concentration Mean
  concentration at 4 hr: 39.2 ng/mL
[1]; mouse, plasma, iv, 1 mg/kg, I-27 IV 1 mg/kg, 8 hr, read-out: Plasma concentration Individual
  concentration at 8 hr: 7.46 ng/mL
[1]; mouse, plasma, iv, 1 mg/kg, I-27 IV 1 mg/kg, 8 hr, read-out: Plasma concentration Mean
  concentration at 8 hr: 7.12 ng/mL
[1]; mouse, plasma, iv, 1 mg/kg, I-27 IV 1 mg/kg, 24 hr, BQL = below quantifiable limit of 1.00 ng/mL, read-out: Plasma concentration Individual
  concentration at 24 hr: 1.09 ng/mL
[1]; mouse, plasma, iv, 1 mg/kg, I-27 IV 1 mg/kg, 24 hr, BQL = below quantifiable limit of 1.00 ng/mL, read-out: Plasma concentration Mean
  concentration at 24 hr: 1.09 ng/mL
[1]; mouse, plasma, po, 30 mg/kg, I-27 PO 30 mg/kg, 0.083 hr, read-out: Plasma concentration Individual
  concentration at 0.083 h: 40.5 ng/mL
[1]; mouse, plasma, po, 30 mg/kg, I-27 PO 30 mg/kg, 0.083 hr, read-out: Plasma concentration Mean
  concentration at 0.083 h: 61.1 ng/mL
[1]; mouse, plasma, po, 30 mg/kg, I-27 PO 30 mg/kg, 0.25 hr, read-out: Plasma concentration Individual
  concentration at 0.25 h: 448 ng/mL
[1]; mouse, plasma, po, 30 mg/kg, I-27 PO 30 mg/kg, 0.25 hr, read-out: Plasma concentration Mean
  concentration at 0.25 h: 468 ng/mL
[1]; mouse, plasma, po, 30 mg/kg, I-27 PO 30 mg/kg, 0.5 hr, read-out: Plasma concentration Individual
  concentration at 0.5 h: 2080 ng/mL
[1]; mouse, plasma, po, 30 mg/kg, I-27 PO 30 mg/kg, 0.5 hr, read-out: Plasma concentration Mean
  concentration at 0.5 h: 1650 ng/mL
[1]; mouse, plasma, po, 30 mg/kg, I-27 PO 30 mg/kg, 1 hr, read-out: Plasma concentration Individual
  concentration at 1 h: 1930 ng/mL
[1]; mouse, plasma, po, 30 mg/kg, I-27 PO 30 mg/kg, 1 hr, read-out: Plasma concentration Mean
  concentration at 1 h: 2050 ng/mL
[1]; mouse, plasma, po, 30 mg/kg, I-27 PO 30 mg/kg, 2 hr, read-out: Plasma concentration Individual
  concentration at 2 h: 2040 ng/mL
[1]; mouse, plasma, po, 30 mg/kg, I-27 PO 30 mg/kg, 2 hr, read-out: Plasma concentration Mean
  concentration at 2 h: 2280 ng/mL
[1]; mouse, plasma, po, 30 mg/kg, I-27 PO 30 mg/kg, 4 hr, read-out: Plasma concentration Individual
  concentration at 4 h: 2050 ng/mL
[1]; mouse, plasma, po, 30 mg/kg, I-27 PO 30 mg/kg, 4 hr, read-out: Plasma concentration Mean
  concentration at 4 h: 1990 ng/mL
[1]; mouse, plasma, po, 30 mg/kg, I-27 PO 30 mg/kg, 8 hr, read-out: Plasma concentration Individual
  concentration at 8 h: 613 ng/mL
[1]; mouse, plasma, po, 30 mg/kg, I-27 PO 30 mg/kg, 8 hr, read-out: Plasma concentration Mean
  concentration at 8 h: 607 ng/mL
[1]; mouse, plasma, po, 30 mg/kg, I-27 PO 30 mg/kg, 24 hr, read-out: Plasma concentration Individual
  concentration at 24 h: 14.2 ng/mL
[1]; mouse, plasma, po, 30 mg/kg, I-27 PO 30 mg/kg, 24 hr, read-out: Plasma concentration Mean
  concentration at 24 h: 11.8 ng/mL
[1]; mouse, plasma, I-27 IV 1 mg/kg
  AUC(0-inf): 2170 ng·h/mL
  AUC(0-t): 2160 ng·h/mL
  C0: 9630 ng/mL
  MRT inf: 1.13 h
  MRT last: 1.04 h
  clearance: 7.68 mL/min/kg
  half-life: 4.29 h
[1]; mouse, plasma, I-27 IV 1 mg/kg, read-out: Vss
  Vd: 0.52 L/kg
[1]; [2]
  AUC(0-inf): 17900 ng·h/mL
  AUC(0-t): 17800 ng·h/mL
  Cmax: 2280 ng/mL
  MRT inf: 4.74 h
  MRT last: 4.68 h
  Tmax: 2 h
  half-life: 2.73 h
